Measurements as given in ChEMBL document CHEMBL3885881, “DrugMatrix”.

Species: Rattus norvegicus
Experiment: DrugMatrix - Regimen: Daily Repeat
Type: toxicity, organism-based, Sprague-Dawley
Design: regimen Daily Repeat, gender Male, age 6-8 weeks
Conditions: in vivo, sc, 54 mg/kg, route subcutaneous, dose level Low, […]
[1] = 72 h, tissue Plasma, time 3 day
[2] = 120 h, tissue Blood, time 5 day
[3] = 120 h, tissue Plasma, time 5 day

For NYSTATIN, the “ABSOLUTE BASOPHIL” value (72 h, tissue Blood, time 3 day) was 0 CELLS/uL, the “ABSOLUTE EOSINOPHIL” value (72 h, tissue Blood, time 3 day) was 50 CELLS/uL and the “ABSOLUTE LYMPHOCYTE” value (72 h, tissue Blood, time 3 day) was 13843 CELLS/uL. For the same sequence, the “ABSOLUTE MONOCYTE” value (72 h, tissue Blood, time 3 day) was 920.67 CELLS/uL, the “ABSOLUTE SEGMENTED NEUTROPHIL” value (72 h, tissue Blood, time 3 day) was 2486.33 CELLS/uL and the BASOPHIL (72 h, tissue Blood, time 3 day) was 0%. For the same sequence, the EOSINOPHIL (72 h, tissue Blood, time 3 day) was 0.33%, the “ERYTHROCYTE COUNT” value (72 h, tissue Blood, time 3 day) was 5.95 x10E6/uL and the HEMATOCRIT (72 h, tissue Blood, time 3 day) was 34.97%. For the same sequence, the HEMOGLOBIN (72 h, tissue Blood, time 3 day) was 13.07 G/DL, the “LEUKOCYTE COUNT” value (72 h, tissue Blood, time 3 day) was 17.3 x10E3/uL and the LYMPHOCYTE (72 h, tissue Blood, time 3 day) was 80.33%. The “MEAN CORPUSCULAR HEMOGLOBIN” value (72 h, tissue Blood, time 3 day) was 21.93 pg, the “MEAN CORPUSCULAR HEMOGLOBIN CONCENTRATION” value (72 h, tissue Blood, time 3 day) was 37.37 G/DL and the “MEAN CORPUSCULAR VOLUME” value (72 h, tissue Blood, time 3 day) was 58.73 fL. For the same sequence, the MONOCYTE (72 h, tissue Blood, time 3 day) was 5.33%, the NEUTROPHIL (72 h, tissue Blood, time 3 day) was 14% and the “NUCLEATED RED BLOOD CELLS” value (72 h, tissue Blood, time 3 day) was 0 /100WBC. For the same sequence, the “PLATELET COUNT” value (72 h, tissue Blood, time 3 day) was 1209 x10E3/uL, the “ALANINE AMINOTRANSFERASE” value [1] was 35 u/L and the ALBUMIN [1] was 2.97 G/DL. The “ALKALINE PHOSPHATASE” value [1] was 281 u/L, the “ASPARTATE AMINOTRANSFERASE” value [1] was 75.67 u/L and the “BLOOD UREA NITROGEN” value [1] was 18.67 mg/dL. For the same sequence, the “CARBON DIOXIDE” value [1] was 21.33 mmol/L, the CHOLESTEROL [1] was 62.33 mg/dL and the “CREATINE PHOSPHOKINASE” value [1] was 212.67 u/L. For the same sequence, the CREATININE [1] was 0.18 mg/dL, the “LACTATE DEHYDROGENASE” value [1] was 276.67 u/L and the LIPASE [1] was 6.67 u/L. The PHOSPHORUS [1] was 11.77 mg/dL, the POTASSIUM [1] was 6.36 MEQ/L and the SODIUM [1] was 149.8 MEQ/L. The “TOTAL BILIRUBIN” value [1] was 0.13 mg/dL, the “URIC ACID” value [1] was 2 mg/dL and the “ABSOLUTE BASOPHIL” value [2] was 0 CELLS/uL. The “ABSOLUTE EOSINOPHIL” value [2] was 278 CELLS/uL, the “ABSOLUTE LYMPHOCYTE” value [2] was 19000 CELLS/uL and the “ABSOLUTE MONOCYTE” value [2] was 554 CELLS/uL. The “ABSOLUTE SEGMENTED NEUTROPHIL” value [2] was 5634.67 CELLS/uL, the BASOPHIL [2] was 0% and the EOSINOPHIL [2] was 1%. For the same sequence, the “ERYTHROCYTE COUNT” value [2] was 5.2 x10E6/uL, the HEMATOCRIT [2] was 32.27% and the HEMOGLOBIN [2] was 12.13 G/DL. For the same sequence, the “LEUKOCYTE COUNT” value [2] was 25.47 x10E3/uL, the LYMPHOCYTE [2] was 76.67% and the “MEAN CORPUSCULAR HEMOGLOBIN” value [2] was 23.37 pg. The “MEAN CORPUSCULAR HEMOGLOBIN CONCENTRATION” value [2] was 37.63 G/DL, the MONOCYTE [2] was 2% and the NEUTROPHIL [2] was 20.33%. The “NUCLEATED RED BLOOD CELLS” value [2] was 0 /100WBC, the “PLATELET COUNT” value [2] was 1747 x10E3/uL and the “ALANINE AMINOTRANSFERASE” value [3] was 31.33 u/L. For the same sequence, the ALBUMIN [3] was 2.63 G/DL, the “ALKALINE PHOSPHATASE” value [3] was 261.33 u/L and the “ASPARTATE AMINOTRANSFERASE” value [3] was 76 u/L. The “BLOOD UREA NITROGEN” value [3] was 22.33 mg/dL, the “CARBON DIOXIDE” value [3] was 24.67 mmol/L and the CHLORIDE [3] was 107.33 MEQ/L. The CHOLESTEROL [3] was 48.67 mg/dL, the “CREATINE PHOSPHOKINASE” value [3] was 286 u/L and the CREATININE [3] was 0.17 mg/dL. The GLUCOSE [3] was 135 mg/dL, the “LACTATE DEHYDROGENASE” value [3] was 423.33 u/L and the LIPASE [3] was 7 u/L. The POTASSIUM [3] was 6.66 MEQ/L, the SODIUM [3] was 147.07 MEQ/L and the “TOTAL BILIRUBIN” value [3] was 0.1 mg/dL. The “TOTAL PROTEIN” value [3] was 5.43 G/DL and the “URIC ACID” value [3] was 1.73 mg/dL.
